For one data set, the target named is HSP90α (Homo sapiens, UniProt P07900). Put plainly: HSP90α Binding Fluorescent Polarization (FP) Assay. The note with it: competition with FITC-geldanamycin; read-out: HSP90 Binding Potency. A digest of the protocol:
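Competitive FP assay in which compound displaces FITC-geldanamycin from recombinant HSP90α (28 μg/ml before addition) in BSA-containing buffer. Compounds in 3-fold series from 40 μM to 2.0 nM (dilution-plate concentrations), tested in duplicate. Readings after 30, 60 and 120 min at 25 °C; background-subtracted mP fitted to four-parameter log[inhibitor]-response curve.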

The target in the next data set is T1, BRD4 (BD1+BD2) (Homo sapiens, UniProt O60885).
T1 construct: 1.8 μg/ml recombinant BRD4 (BD1+BD2 domains) protein
The note with it: read-out: BRD4 Binding Potency.

Another data set has as its system MV4-11 cells. Put plainly: MV4-11 Cell Cytotoxicity Assay. The format is cell-based, human. To be noted: CCK-8; for IC50 at 72 h: human, MV4-11 cells; for IC50: 72 hr. From the text:
% Inhibition=100−(D−B)/(S−B)*100%.
S: The absorbance of the maximum (cells with DMSO)
B: The absorbance of the minimum (medium with DMSO)

Some results are limits rather than exact numbers.

`Cc1sc2c(c1C)C(c1ccc(Cl)cc1)=N[C@@H](CC(=O)NCC(=O)NCC1CN(C(=O)C3CCN(Cc4ccc(-n5c(O)nnc5-c5cc(C(C)C)c(O)cc5O)cc4)CC3)C1)c1nnc(C)n1-2` [Compound 60, 2-((6S)-4-(4-chlorophenyl)-2,3,9-trimethyl-6H-thieno[3,2-f][1,2,4]triazolo[4,3-a][1,4]diazepin-6-yl)-N-(2-(((1-(1-(4-(3-(2,4-dihydroxy-5-isopropylphenyl)-5-hydroxy-4H-1,2,4-triazol-4-yl)benzyl)piperidine-4-carbonyl)azetidin-3-yl)methyl)amino)-2-oxoethyl)acetamide, trifluoroacetic acid]: the IC50 at HSP90α and at BRD4 (BD1+BD2) was 100 to 1000 nM throughout. The IC50 at 72 h in the data set with MV4-11 cells is below 100 nM.

For `Cc1sc2c(c1C)C(c1ccc(Cl)cc1)=N[C@@H](CC(=O)NCc1ccc(CN3CCC(Cc4ccc(-n5c(O)nnc5-c5cc(C(C)C)c(O)cc5O)cc4)CC3)cc1)c1nnc(C)n1-2` [Compound 89, (S)-2-(4-(4-chlorophenyl)-2,3,9-trimethyl-6H-thieno[3,2-f][1,2,4]triazolo[4,3-a][1,4]diazepin-6-yl)-N-(4-((4-(4-(3-(2,4-dihydroxy-5-isopropylphenyl)-5-hydroxy-4H-1,2,4-triazol-4-yl)benzyl)piperidin-1-yl)methyl)benzyl)acetamide, trifluoroacetic acid], the IC50 on HSP90α and on BRD4 (BD1+BD2) was 100 to 1000 nM throughout. For the same compound, in the data set with MV4-11 cells, the IC50 at 72 h was below 100 nM.

Consider `CCc1cc(-c2nnc(O)n2-c2ccc(CN3CCC(C(=O)N4CCC(CNCC[C@@H]5N=C(c6ccc(Cl)cc6)c6c(sc(C)c6C)-n6c(C)nnc65)C4)CC3)cc2)c(O)cc1O` (stereo partly drawn) [Compound 67, (3-(((2-((6S)-4-(4-chlorophenyl)-2,3,9-trimethyl-6H-thieno[3,2-f][1,2,4]triazolo[4,3-a][1,4]diazepin-6-yl)ethyl)amino)methyl)pyrrolidin-1-yl)(1-(4-(3-(5-ethyl-2,4-dihydroxyphenyl)-5-hydroxy-4H-1,2,4-triazol-4-yl)benzyl)piperidin-4-yl)methanone, trifluoroacetic acid], for which the IC50 on HSP90α and at BRD4 (BD1+BD2) was 100 to 1000 nM throughout. In addition, in the data set on MV4-11 cells, the IC50 at 72 h lay in the range of 100 to 1000 nM.

As for `Cc1sc2c(c1C)C(c1ccc(Cl)cc1)=N[C@@H](CC(=O)N1CCN(c3ccc(-n4c(O)nnc4-c4cc(C(C)C)c(O)cc4O)cc3)CC1)c1nnc(C)n1-2` [Compound 79, (S)-2-(4-(4-chlorophenyl)-2,3,9-trimethyl-6H-thieno[3,2-f][1,2,4]triazolo[4,3-a][1,4]diazepin-6-yl)-1-(4-(4-(3-(2,4-dihydroxy-5-isopropylphenyl)-5-hydroxy-4H-1,2,4-triazol-4-yl)phenyl)piperazin-1-yl)ethan-1-one], the IC50 at HSP90α and at BRD4 (BD1+BD2) was 100 to 1000 nM each time. In addition, the IC50 at 72 h in the data set with MV4-11 cells is below 100 nM.

As to `Cc1sc2c(c1C)C(c1ccc(Cl)cc1)=N[C@@H](CC(=O)NCCOCCOCCN[C@@H](C)C(=O)N[C@H](C(=O)N1CCC[C@H]1C(=O)Nc1snnc1-c1ccccc1)C1CCCCC1)c1nnc(C)n1-2` [Compound 128, (S)-1-((2S,5S)-17-((S)-4-(4-chlorophenyl)-2,3,9-trimethyl-6H-thieno[3,2-f][1,2,4]triazolo[4,3-a][1,4]diazepin-6-yl)-2-cyclohexyl-5-methyl-4,16-dioxo-9,12-dioxa-3,6,15-triazaheptadecanoyl)-N-(4-phenyl-1,2,3-thiadiazol-5-yl)pyrrolidine-2-carboxamide], the IC50 on HSP90α and at BRD4 (BD1+BD2) was above 1000 nM in each case. The IC50 at 72 h in the data set on MV4-11 cells was above 1000 nM.

Take `CCc1cc(-c2nnc(O)n2-c2ccc(CN3CCC(C(=O)N4CCC(CNC(=O)C[C@@H]5N=C(c6ccc(Cl)cc6)c6c(sc(C)c6C)-n6c(C)nnc65)C4)CC3)cc2)c(O)cc1O` (stereo partly drawn) [Compound 77, 2-((6S)-4-(4-chlorophenyl)-2,3,9-trimethyl-6H-thieno[3,2-f][1,2,4]triazolo[4,3-a][1,4]diazepin-6-yl)-N-((1-(1-(4-(3-(5-ethyl-2,4-dihydroxyphenyl)-5-hydroxy-4H-1,2,4-triazol-4-yl)benzyl)piperidine-4-carbonyl)pyrrolidin-3-yl)methyl)acetamide, trifluoroacetic acid]: the IC50 at HSP90α was 100 to 1000 nM; at BRD4 (BD1+BD2), below 100 nM. Further, the IC50 at 72 h in the data set on MV4-11 cells is 100 to 1000 nM.

Take “(S)—N-(4′-((1-((S)-(2-(4-(4-chlorophenyl)-2,3,9-trimethyl-6H-thieno[3,2-f][1,2,4]triazolo[4,3-a][1,4]diazepin-6-yl)acetyl)glycyl)piperidin-4-yl)oxy)-2′-(2-(dimethylamino)ethoxy)-[1,1′-biphenyl]-4-yl)-3′,6-dimethoxy-[1,1′-biphenyl]-3-carboxamide [Compound 137]”: the values for the IC50 at HSP90α, at BRD4 (BD1+BD2) and in the data set with MV4-11 cells were above 1000 nM, 100 to 1000 nM and 100 to 1000 nM, respectively.

In the case of `CCc1cc(-c2nnc(O)n2-c2ccc(CN3CCC(C(=O)N4CCC(CNCC[C@@H]5N=C(c6ccc(Cl)cc6)c6c(sc(C)c6C)-n6c(C)nnc65)CC4)CC3)cc2)c(O)cc1O` [Compound 68, (4-(((2-((6S)-4-(4-chlorophenyl)-2,3,9-trimethyl-6H-thieno[3,2-f][1,2,4]triazolo[4,3-a][1,4]diazepin-6-yl)ethyl)amino)methyl)piperidin-1-yl)(1-(4-(3-(5-ethyl-2,4-dihydroxyphenyl)-5-hydroxy-4H-1,2,4-triazol-4-yl)benzyl)piperidin-4-yl)methanone, trifluoroacetic acid], the IC50 on HSP90α and at BRD4 (BD1+BD2) was 100 to 1000 nM in each case. For the same compound, in the data set on MV4-11 cells, the IC50 at 72 h was in the range of 100 to 1000 nM.

In the case of `Cc1cc(-c2nnc(C(=O)NCCN3CCCCC3)n2-c2ccc(CN3CCN(CC4CCN(C(=O)C[C@@H]5N=C(c6ccc(Cl)cc6)c6c(sc(C)c6C)-n6c(C)nnc65)CC4)CC3)cc2)c(O)cc1O` [Compound 124, (S)-4-(4-((4-((1-(2-(4-(4-chlorophenyl)-2,3,9-trimethyl-6H-thieno[3,2-f][1,2,4]triazolo[4,3-a][1,4]diazepin-6-yl)acetyl)piperidin-4-yl)methyl)piperazin-1-yl)methyl)phenyl)-5-(2,4-dihydroxy-5-methylphenyl)-N-(2-(piperidin-1-yl)ethyl)-4H-1,2,4-triazole-3-carboxamide, trifluoroacetic acid], the IC50 was 100 to 1000 nM at HSP90α and below 100 nM at BRD4 (BD1+BD2). This compound displayed an IC50 at 72 h in the data set on MV4-11 cells below 100 nM.

Turning to `Cc1sc2c(c1C)C(c1ccc(Cl)cc1)=N[C@@H](CC(=O)N1CCC(CN3CCN(Cc4ccc(-n5c(S)nnc5-c5cc(C(C)C)c(O)cc5O)cc4)CC3)CC1)c1nnc(C)n1-2` [Compound 12, 2-((6S)-4-(4-chlorophenyl)-2,3,9-trimethyl-6H-thieno[3,2-f][1,2,4]triazolo[4,3-a][1,4]diazepin-6-yl)-1-(4-((4-(4-(3-(2,4-dihydroxy-5-isopropylphenyl)-5-mercapto-4H-1,2,4-triazol-4-yl)benzyl)piperazin-1-yl)methyl)piperidin-1-yl)ethanone, trifluoroacetic acid], the IC50 was below 100 nM on HSP90α and above 1000 nM at BRD4 (BD1+BD2). In the data set on MV4-11 cells, this compound had an IC50 at 72 h below 100 nM.

As to `Cc1sc2c(c1C)C(c1ccc(Cl)cc1)=N[C@@H](CC(=O)N(C)CCOc1ccc(CN(C)Cc3ccc(-n4c(C(=O)NCC(F)(F)F)nnc4-c4cc(C(C)C)c(O)cc4O)cc3)cc1)c1nnc(C)n1-2` [Compound 101, (S)-4-(4-(((4-(2-(2-(4-(4-chlorophenyl)-2,3,9-trimethyl-6H-thieno[3,2-f][1,2,4]triazolo[4,3-a][1,4]diazepin-6-yl)-N-methylacetamido)ethoxy)benzyl)(methyl)amino)methyl)phenyl)-5-(2,4-dihydroxy-5-isopropylphenyl)-N-(2,2,2-trifluoroethyl)-4H-1,2,4-triazole-3-carboxamide, formic acid], the IC50 at HSP90α and on BRD4 (BD1+BD2) was above 1000 nM throughout. In the data set with MV4-11 cells, this compound had an IC50 at 72 h below 100 nM.

As to `Cc1sc2c(c1C)C(c1ccc(Cl)cc1)=N[C@@H](CC(=O)N1CCN(Cc3ccc(-n4c(O)nnc4-c4cc(C(C)C)c(O)cc4O)cc3)CC1)c1nnc(C)n1-2` [Compound 38, 2-((6S)-4-(4-chlorophenyl)-2,3,9-trimethyl-6H-thieno[3,2-f][1,2,4]triazolo[4,3-a][1,4]diazepin-6-yl)-1-(4-(4-(3-(2,4-dihydroxy-5-isopropylphenyl)-5-hydroxy-4H-1,2,4-triazol-4-yl)benzyl)piperazin-1-yl)ethanone, trifluoroacetic acid], the IC50 at HSP90α was 100 to 1000 nM; on BRD4 (BD1+BD2) it was above 1000 nM. In the data set on MV4-11 cells, this compound came in with an IC50 at 72 h below 100 nM.

On to “(S)—N-(4′-((1-((S)-(2-(4-(4-chlorophenyl)-2,3,9-trimethyl-6H-thieno[3,2-f][1,2,4]triazolo[4,3-a][1,4]diazepin-6-yl)acetyl)glycyl)piperidin-4-yl)oxy)-2′-hydroxy-[1,1′-biphenyl]-4-yl)-3′,6-dimethoxy-[1,1′-biphenyl]-3-carboxamide [Compound 133]”, for which the IC50 on HSP90α, on BRD4 (BD1+BD2) and in the data set with MV4-11 cells was above 1000 nM each time.

In the case of `CCc1cc(-c2nnc(C(N)=O)n2-c2ccc(CN3CCN(CC4CCN(C(=O)C[C@@H]5N=C(c6ccc(Cl)cc6)c6c(sc(C)c6C)-n6c(C)nnc65)CC4)CC3)cc2)c(O)cc1O` [Compound 106, (S)-4-(4-((4-((1-(2-(4-(4-chlorophenyl)-2,3,9-trimethyl-6H-thieno[3,2-f][1,2,4]triazolo[4,3-a][1,4]diazepin-6-yl)acetyl)piperidin-4-yl)methyl)piperazin-1-yl)methyl)phenyl)-5-(5-ethyl-2,4-dihydroxyphenyl)-4H-1,2,4-triazole-3-carboxamide, trifluoroacetic acid], the IC50 on HSP90α and on BRD4 (BD1+BD2) was 100 to 1000 nM throughout. The compound also registered an IC50 at 72 h in the data set on MV4-11 cells below 100 nM.

The record behind these values is patent US20220168427A1 (Ranok Therapeutics (Hangzhou) Co. Ltd., priority 2019, published 2022).
